From article PMC6390472, “‘Second-generation’ 1,2,3-triazole-based inhibitors of Porphyromonas gingivalis adherence to oral streptococci and biofilm formation” (MedChemComm, 2019)
pIC50: −log10 of the molar value.

Test system: P. gingivalis adherence to S. gordonii
Test: Biofilm model of P. gingivalis adherence to S. gordonii (confocal, green/red fluorescence ratio)
Format: cell-based, P. gingivalis ATCC33277 / S. gordonii DL-1
Conditions: inhibition of P. gingivalis adherence to S. gordonii; concentration that reduced ratio of green to red fluorescence by 50%; tested 0–60 μM
Protocol: P. gingivalis ATCC33277 was grown in reduced trypticase soy broth (Difco) supplemented with 0.5 percent yeast extract, 1 μg mL^–1 menadione, and 5 μg mL^–1 hemin. Twenty five milliliters of medium were reduced for 24 h under anaerobic conditions by equilibrating in an atmosphere consisting of 10% CO2, 10% H2, and 80% N2. Following equilibration, P. gingivalis was inoculated in the medium and grown for 48 h at 37 °C under anaerobic conditions. S. gordonii DL-1 (1) was cultured aerobically without shaking in brain heart infusion (BHI) broth supplemented with 1 percent yeast extract for 16 hours at 37 °C. For some compounds that inhibited P. gingivalis adherence to S. gordonii, we determined their effect on planktonic growth of P. gingivalis and S. gordonii. The appropriate growth medium (10 ml) was supplemented with 10 μl of a 40 mM compound stock solution in DMSO. After inoculation, broth cultures were incubated as described above and compared to cultures grown in medium that was supplemented only with 0.1% DMSO. The cell density of each culture was determined by measuring the optical density at 600 nm (O.D.600nm) and the percent growth inhibition/stimulation was calculated using the following equation: [(O.D.600nm of the control/O.D.600nm of the culture grown in the presence of compound) – 1] × 100.
Two species biofilms were formed essentially as previously described.[39] To prepare bacterial cells for biofilm culture, 10 ml of an overnight S. gordonii culture was centrifuged at 5600 rpm for 5 min and the cell pellet was suspended in 1 mL sterile PBS. Subsequently, 20 μL of 5 mg ml^–1 hexidium iodide (Molecular Probes) was added to the cell suspension and incubated for 15 min with gentle shaking at room temperature in the dark. The labeled cells were centrifuged as described above, washed with phosphate-buffered saline (10 mM Na2HPO4, […], […], and 2.7 mM KCl, pH 7.2; [PBS]) and the cell pellet was suspended in PBS at a final O.D.600nm of 0.8. Similarly, 10 mL of a 48 h culture of P. gingivalis was centrifuged at 5600 rpm for 15 min, the cell pellet was suspended in 1 mL PBS and 20 μL of 5(6)-carboxyfluorescein N-hydroxysuccinimide ester (4 mg ml^–1, Molecular Probes, Inc.) was added. After incubation for 30 min with gentle shaking at room temperature in the dark, the suspension was centrifuged and washed as described above and suspended in PBS at a final O.D.600nm of 0.4. For biofilm cultures, 1 mL of labeled S. gordonii cells was added to each well of a 12-well microtiter plate (Greiner Bio-one) containing a circular coverslip (Fisher brand) and incubated in an anaerobic chamber with rotary shaking for 24 h at 37 °C. Unbound cells were removed by aspiration and 1 ml of labeled P. gingivalis cells containing the desired concentration of test compound was added and incubated under anaerobic conditions for 22 h at 37 °C. Test compounds were dissolved in dimethyl sulfoxide (DMSO) to generate 1000× stock solutions and were routinely tested over a final concentration range of 0–60 μM. 1 μL of the appropriate stock solution was added to each 1 mL aliquot of labeled P. gingivalis cells and incubated for 30 min at room temperature prior to adding the suspension to the microtiter plate wells. For control biofilms, 1 μL of DMSO was added to 1 mL of labeled P. gingivalis and incubated as described above.
To visualize P. gingivalis/S. gordonii biofilms, unbound P. gingivalis cells were removed by aspiration and coverslips were washed once with PBS. Biofilms were fixed by incubating the coverslips with 1 mL of 4% paraformaldehyde for 5 min followed by two washes with PBS. The coverslips were then removed, placed face down on a glass microscope slide containing a drop of antifade reagent (Life Technology) and sealed with nail polish. […]

| SMILES | pIC50 |
| --- | --- |
| [O-][S+](Cc1nc(-c2ccccc2)c(-c2ccccc2)o1)c1ccc(-n2cc(-c3cccnc3)nn2)cc1 (stereo not drawn) [Compound 28, 4,5-Diphenyl-2-(((4-(4-(pyridin-3-yl)-1H-1,2,3-triazol-1-yl)phenyl)sulfinyl)methyl) oxazole] | < 4.22 |
| [O-][S+](Cc1nc(-c2ccccc2)c(-c2ccccc2)o1)c1ccc(-n2cc(-c3ccc(F)cc3)nn2)cc1 (stereo not drawn) [Compound 29] | < 4.22 |
| [O-][S+](Cc1nc(-c2ccccc2)c(-c2ccccc2)o1)c1ccc(-n2cc(-c3cccc(F)c3)nn2)cc1 (stereo not drawn) [Compound 30] | 4.33 |
| COc1ccccc1-c1cn(-c2ccc([S+]([O-])Cc3nc(-c4ccccc4)c(-c4ccccc4)o3)cc2)nn1 (stereo not drawn) [Compound 31] | < 4.22 |
| [O-][S+](Cc1nc(-c2ccccc2)c(-c2ccccc2)o1)c1ccc(-n2cc(-c3ccccc3C(F)(F)F)nn2)cc1 (stereo not drawn) [Compound 32] | < 4.22 |
| COc1ccc2cc(-c3cn(-c4ccc([S+]([O-])Cc5nc(-c6ccccc6)c(-c6ccccc6)o5)cc4)nn3)ccc2c1 (stereo not drawn) [Compound 33] | < 4.22 |
| CCCCCc1ccc(-c2cn(-c3ccc([S+]([O-])Cc4nc(-c5ccccc5)c(-c5ccccc5)o4)cc3)nn2)cc1 (stereo not drawn) [Compound 34] | < 4.22 |
| [O-][S+](Cc1nc(-c2ccccc2)c(-c2ccccc2)o1)c1ccc(-n2cc(-c3ccc(Oc4ccccc4)cc3)nn2)cc1 (stereo not drawn) [Compound 35] | < 4.22 |
| [O-][S+](Cc1nc(-c2ccccc2)c(-c2ccccc2)o1)c1ccc(-n2cc(-c3cc(C(F)(F)F)cc(C(F)(F)F)c3)nn2)cc1 (stereo not drawn) [Compound 36] | < 4.22 |
| O=S(=O)(Cc1nc(-c2ccccc2)c(-c2ccccc2)o1)c1ccc(-n2cc(-c3cccnc3)nn2)cc1 [Compound 37] | < 4.22 |
| O=S(=O)(Cc1nc(-c2ccccc2)c(-c2ccccc2)o1)c1ccc(-n2cc(-c3ccc(F)cc3)nn2)cc1 [Compound 38] | 4.80 |
| O=S(=O)(Cc1nc(-c2ccccc2)c(-c2ccccc2)o1)c1ccc(-n2cc(-c3cccc(F)c3)nn2)cc1 [Compound 39] | 4.47 |
| COc1ccccc1-c1cn(-c2ccc(S(=O)(=O)Cc3nc(-c4ccccc4)c(-c4ccccc4)o3)cc2)nn1 [Compound 40] | 4.88 |
| O=S(=O)(Cc1nc(-c2ccccc2)c(-c2ccccc2)o1)c1ccc(-n2cc(-c3ccccc3C(F)(F)F)nn2)cc1 [Compound 41] | < 4.22 |
| COc1ccc2cc(-c3cn(-c4ccc(S(=O)(=O)Cc5nc(-c6ccccc6)c(-c6ccccc6)o5)cc4)nn3)ccc2c1 [Compound 42] | < 4.22 |
| CCCCCc1ccc(-c2cn(-c3ccc(S(=O)(=O)Cc4nc(-c5ccccc5)c(-c5ccccc5)o4)cc3)nn2)cc1 [Compound 43] | 4.44 |
| O=S(=O)(Cc1nc(-c2ccccc2)c(-c2ccccc2)o1)c1ccc(-n2cc(-c3ccc(Oc4ccccc4)cc3)nn2)cc1 [Compound 44] | 4.78 |
| O=S(=O)(Cc1nc(-c2ccccc2)c(-c2ccccc2)o1)c1ccc(-n2cc(-c3cc(C(F)(F)F)cc(C(F)(F)F)c3)nn2)cc1 [Compound 45] | 4.41 |
| [O-][S+](Cc1nc(-c2ccc(F)cc2)c(-c2ccc(F)cc2)o1)c1ccc(-n2cc(-c3cccc(F)c3)nn2)cc1 (stereo not drawn) [Compound 46] | 5.28 |
| [O-][S+](Cc1nc(-c2ccc(F)cc2)c(-c2ccc(F)cc2)o1)c1ccc(-n2cc(-c3ccc(F)cc3)nn2)cc1 (stereo not drawn) [Compound 47] | 4.44 |
| COc1ccccc1-c1cn(-c2ccc([S+]([O-])Cc3nc(-c4ccc(F)cc4)c(-c4ccc(F)cc4)o3)cc2)nn1 (stereo not drawn) [Compound 48] | 5.14 |
| [O-][S+](Cc1nc(-c2ccc(Cl)cc2)c(-c2ccc(Cl)cc2)o1)c1ccc(-n2cc(-c3cccc(F)c3)nn2)cc1 (stereo not drawn) [Compound 49] | 4.82 |
| [O-][S+](Cc1nc(-c2ccc(Cl)cc2)c(-c2ccc(Cl)cc2)o1)c1ccc(-n2cc(-c3ccc(F)cc3)nn2)cc1 (stereo not drawn) [Compound 50] | 4.40 |

| SMILES | pIC50 |
| --- | --- |
| COc1ccccc1-c1cn(-c2ccc([S+]([O-])Cc3nc(-c4ccc(Cl)cc4)c(-c4ccc(Cl)cc4)o3)cc2)nn1 (stereo not drawn) [Compound 51] | 4.99 |
| O=S(=O)(Cc1nc(-c2ccc(F)cc2)c(-c2ccc(F)cc2)o1)c1ccc(-n2cc(-c3cccc(F)c3)nn2)cc1 [Compound 52] | 4.40 |
| O=S(=O)(Cc1nc(-c2ccc(F)cc2)c(-c2ccc(F)cc2)o1)c1ccc(-n2cc(-c3ccc(F)cc3)nn2)cc1 [Compound 53] | 4.40 |
| O=S(=O)(Cc1nc(-c2ccc(Cl)cc2)c(-c2ccc(Cl)cc2)o1)c1ccc(-n2cc(-c3cccc(F)c3)nn2)cc1 [Compound 55] | 4.74 |
| CCN(CC)c1nc(-c2cn(-c3cccc(-c4nc(-c5ccccc5)c(-c5ccccc5)o4)c3)nn2)nc(N(CC)CC)n1 [Compound 90] | 4.68 |
| CCN(CC)c1nc(-c2cn(-c3ccc(-c4nc(-c5ccccc5)c(-c5ccccc5)o4)cc3)nn2)nc(N(CC)CC)n1 [Compound 91] | < 4.22 |
| CCN(CC)c1nc(-c2cn(-c3cccc(-c4nc(-c5ccc(F)cc5)c(-c5ccc(F)cc5)o4)c3)nn2)nc(N(CC)CC)n1 [Compound 92] | < 4.22 |
| CCN(CC)c1nc(-c2cn(-c3cccc(-c4nc(-c5ccc(Cl)cc5)c(-c5ccc(Cl)cc5)o4)c3)nn2)nc(N(CC)CC)n1 [Compound 94] | 4.80 |
| CCN(CC)c1nc(-c2cn(-c3cccc(-c4nc(-c5ccc(OC)cc5)c(-c5ccc(OC)cc5)o4)c3)nn2)nc(N(CC)CC)n1 [Compound 96] | < 4.22 |
| CCN(CC)c1nc(-c2cn(-c3ccc(-c4nc(-c5ccc(OC)cc5)c(-c5ccc(OC)cc5)o4)cc3)nn2)nc(N(CC)CC)n1 [Compound 97] | 4.44 |
| CCN(CC)c1nc(-c2cn(-c3cccc(-c4nc(-c5ccco5)c(-c5ccco5)o4)c3)nn2)nc(N(CC)CC)n1 [Compound 98] | < 4.22 |
| CCN(CC)c1nc(-c2cn(-c3ccc(-c4nc(-c5ccco5)c(-c5ccco5)o4)cc3)nn2)nc(N(CC)CC)n1 [Compound 99] | < 4.22 |
| Fc1ccccc1Nc1nc(Nc2ccccc2F)nc(-c2cn(-c3cccc(-c4nc(-c5ccccc5)c(-c5ccccc5)o4)c3)nn2)n1 [Compound 100] | 5.02 |
| Fc1ccccc1Nc1nc(Nc2ccccc2F)nc(-c2cn(-c3ccc(-c4nc(-c5ccccc5)c(-c5ccccc5)o4)cc3)nn2)n1 [Compound 101] | < 4.22 |
| Fc1ccccc1Nc1nc(Nc2ccccc2F)nc(-c2cn(-c3cccc(-c4nc(-c5ccc(Cl)cc5)c(-c5ccc(Cl)cc5)o4)c3)nn2)n1 [Compound 104] | 4.47 |
| Fc1ccccc1Nc1nc(Nc2ccccc2F)nc(-c2cn(-c3ccc(-c4nc(-c5ccc(Cl)cc5)c(-c5ccc(Cl)cc5)o4)cc3)nn2)n1 [Compound 105] | < 4.22 |
| COc1ccc(-c2nc(-c3cccc(-n4cc(-c5nc(Nc6ccccc6F)nc(Nc6ccccc6F)n5)nn4)c3)oc2-c2ccc(OC)cc2)cc1 [Compound 106] | < 4.22 |
| COc1ccc(-c2nc(-c3ccc(-n4cc(-c5nc(Nc6ccccc6F)nc(Nc6ccccc6F)n5)nn4)cc3)oc2-c2ccc(OC)cc2)cc1 [Compound 107] | 4.40 |
| Fc1ccccc1Nc1nc(Nc2ccccc2F)nc(-c2cn(-c3cccc(-c4nc(-c5ccco5)c(-c5ccco5)o4)c3)nn2)n1 [Compound 108] | < 4.22 |
| Fc1ccccc1Nc1nc(Nc2ccccc2F)nc(-c2cn(-c3ccc(-c4nc(-c5ccco5)c(-c5ccco5)o4)cc3)nn2)n1 [Compound 109] | < 4.22 |
| Fc1ccc(Nc2nc(Nc3ccc(F)cc3)nc(-c3cn(-c4ccccc4-c4nc(-c5ccccc5)c(-c5ccccc5)o4)nn3)n2)cc1 [Compound 110] | < 4.22 |
| Fc1ccc(Nc2nc(Nc3ccc(F)cc3)nc(-c3cn(-c4ccc(-c5nc(-c6ccccc6)c(-c6ccccc6)o5)cc4)nn3)n2)cc1 [Compound 112] | < 4.22 |
